# From patent US20260053764A1, “COMPOSITION FOR PREVENTING DETERIORATION IN COGNITIVE FUNCTION AND/OR IMPROVING COGNITIVE FUNCTION” (PHARMA FOODS INTERNATIONAL CO., LTD., priority 2020, published 2026)
# Tested on: cognitive function of a human
# Experiment: RBANS neuropsychological test in clinical tests A and B
# Format: in vivo
# Set-up: Attention / Delayed memory / Immediate memory / Language: scale not given here
# Details: for Attention / Immediate memory / Language / Visual spatial configuration / Delayed memory: mean ± SD; for scores regarding delayed playback, GABA group compared to the placebo group / scores regarding visual space, GABA group compared to the placebo group: after twelve weeks of ingestion
# Procedure: In addition, the RBANS neuropsychological test (RBANS: Repeatable Battery for the Assessment of Neuropsychological Status) is one of the neuropsychological examinations that have been standardized the a in United States, which is neuropsychological test exercise (examination battery) that takes a short time (about 30 minutes) and can be repeatedly assessed. The RBANS neuropsychological test can assess five cognitive domains, which are immediate memory, visual spatial/constructional, language, attention and delayed memory.
# Two types of placebo-controlled randomized double-blind two-group parallel comparison tests were carried out as clinical tests. […] Specifically, capsules comprising 100 mg of dextrin per capsule were used as the placebo food.
# The screening examination was carried out to select 60 subjects for each test (a total of 120 subjects). MMSE (Mini Mental State Examination) is an examination for assessing the degree of progression of dementia or the like based on the score thereof with 30 as the perfect score, wherein dementia is suspected with a score of 23 or lower.
# The total of 120 subjects were randomly divided into test A active group, test A placebo group, test B active group and test B placebo group with 30 subjects in each group. Each subject of the test A active group ingested two capsules of the active food, each subject of the test A placebo group ingested two capsules of the placebo food, each subject of the test B active group ingested one capsule of the active food and each subject of the test B placebo group ingested one capsule of the placebo food.
# Each subject followed the schedule shown in the table below and ingested one or two of the assigned capsules together with water for 12 weeks from two weeks after the initial screening examination. All subjects had no particular instruction during the ingestion period and freely took their meals.
# As shown with ● in the test schedule in Table 1, Cognitrax was carried out a total of five times, which are upon screening, before starting test food sample ingestion, after four weeks of ingestion, after eight weeks of ingestion and after twelve weeks of ingestion, and the RBANS neuropsychological test was carried out a total of two times, which are before staring test food ingestion and after twelve weeks of ingestion.
# [1] = test A 200 mg, before ingestion
# [2] = test B 100 mg, before ingestion
smiles,measurement,setting,value
"NCCCC(=O)O [GABA, γ-aminobutyric acid]",Delayed memory: difference between active food and placebo food groups,"test A 200 mg, 12 w",9.4
same,Immediate memory: difference between active food and placebo food groups,"test A 200 mg, 12 w",13.1
same,Language: difference between active food and placebo food groups,"test A 200 mg, 12 w",5.0
same,RBANS domain (row head blank): difference between active food and placebo food groups,"test A 200 mg, 12 w",5.6
same,Visual space: difference between active food and placebo food groups,"test A 200 mg, 12 w",3.1
same,Attention,"test A 200 mg, 12 w",53.0 ± 15.2
same,Immediate memory,"test A 200 mg, 12 w",47.6 ± 14.7
same,Language,"test A 200 mg, 12 w",54.2 ± 9.5
same,Visual spatial configuration,"test A 200 mg, 12 w",48.8 ± 13.0
same,Delayed memory: difference between active food and placebo food groups,[1],−1.6
same,Immediate memory: difference between active food and placebo food groups,[1],0.8
same,Language: difference between active food and placebo food groups,[1],2.3
same,RBANS domain (row head blank): difference between active food and placebo food groups,[1],−0.8
same,Visual space: difference between active food and placebo food groups,[1],−0.2
same,Attention,[1],44.5 ± 17.6
same,Delayed memory,[1],39.8 ± 17.1
same,Immediate memory,[1],42.3 ± 16.6
same,Language,[1],48.4 ± 8.5
same,Visual spatial configuration,[1],47.7 ± 14.7
same,"scores regarding delayed playback, GABA group compared to the placebo group",test A,significant improvement
same,"scores regarding visual space, GABA group compared to the placebo group",test A,significant improvement
same,Attention: difference between active food and placebo food groups,"test B 100 mg, 12 w",−2.2
same,Delayed memory: difference between active food and placebo food groups,"test B 100 mg, 12 w",11.9
same,Immediate memory: difference between active food and placebo food groups,"test B 100 mg, 12 w",3.5
same,Language: difference between active food and placebo food groups,"test B 100 mg, 12 w",3.9
same,Visual space: difference between active food and placebo food groups,"test B 100 mg, 12 w",9.9
same,Delayed memory,"test B 100 mg, 12 w",46.9 ± 11.3
same,Immediate memory,"test B 100 mg, 12 w",43.9 ± 14.4
same,Language,"test B 100 mg, 12 w",51.6 ± 8.7
same,Visual spatial configuration,"test B 100 mg, 12 w",48.2 ± 10.3
same,Attention: difference between active food and placebo food groups,[2],−5.5
same,Delayed memory: difference between active food and placebo food groups,[2],1.2
same,Immediate memory: difference between active food and placebo food groups,[2],−0.9
same,Language: difference between active food and placebo food groups,[2],−2.1
same,Visual space: difference between active food and placebo food groups,[2],1.0
same,Attention,[2],43.4 ± 11.6
same,Delayed memory,[2],41.7 ± 15.3
same,Immediate memory,[2],42.8 ± 13.4
same,Language,[2],47.8 ± 11.6
same,Visual spatial configuration,[2],48.3 ± 8.8
same,"scores regarding delayed playback, GABA group compared to the placebo group",test B,significant improvement
same,"scores regarding visual space, GABA group compared to the placebo group",test B,significant improvement
